In PubChem BioAssay AID1895 (NMMLSC, 2009) one finds EC50 and Ki data, which are given here for 30 compounds.

Calls of active or inactive are those of the source. How the calls were made is not given here.

What is called EC50 is the concentration that produces a half-maximal response. By Ki is commonly meant the dissociation constant of the complex between target and ligand, obtained from inhibition or displacement. A lower Ki goes with higher affinity.

One experiment concerns the target MEK5 PB1 domain binding to MEKK2 (MAP3K2) mutant PB1, human. Description: inhibitors of MEK5 binding to mutant MEKK2, dose response, biochemical, bead multiplex flow cytometry (AID 1895). To be noted: Bead-based multiplex flow cytometry. (Flow cytometry measures light scatter and fluorescence of single cells or particles in a stream.)
As to `CCN(CC)CCOC(=O)c1ccc(N/C=C(/C#N)c2nc(-c3ccc(OC)cc3)cs2)cc1`, the EC50 was > 30 µM (inactive).

`Cc1ccc(-n2cc(CNCCCn3ccnc3C)c(-c3ccc(F)cc3)n2)cc1`: the EC50 was > 30 µM (inactive).

On to `C#CCOCCOCCOCCNc1nc(N2CCN(C(=O)C([C@@H](C)CC)n3cc(C(N)COC(=O)C(F)(F)F)nn3)CC2)nc(N2CCN(C(=O)[C@H](CCCCN)n3cc(C(N)[C@H](C)CC)nn3)CC2)n1` (some centres undefined), for which the EC50 is > 30 µM (inactive). Turning to `Brc1ccc(N=C/C=C/C=C/Nc2ccc(Br)cc2)cc1`, the EC50 is > 30 µM (inactive).

`CN(c1ccccc1)c1ccc(/C=c2\s/c(=C(/C#N)C(=O)C(C)(C)C)n(Cc3ccco3)c2=O)cc1`: the EC50 entry is “inactive”. On the same count and under the same terms, then `CCN1/C(=C/c2ccc3cc(C)ccc3[n+]2CC)Sc2cc(C)c(C)cc21`, with > 30 µM (inactive); and `COc1ccccc1N1CCN(S(=O)(=O)c2ccc(Cl)s2)CC1`, with > 30 µM (inactive); and `CCCCN(CC)CCNC(=O)c1cc2c(-c3ccc(Cl)cc3)nn(C)c2s1`, with 22.8 µM.

For `CCCCCCCCCCCCCCCC[n+]1ccc(/C=N/O)cc1`, the EC50 is 8.61 µM. Still for that read-out and setting: then `CCN1C(c2ccccc2)=C(c2ccccc2)S/C1=C/C=C1\SC(=S)N(C)C1=O`, with “inactive”; and `COc1ccc(Cn2c(SCc3ccc(C)cc3)nc3cc(OC)c(OC)cc3c2=N)cc1Cl`, with 2.23 µM; and `CCN1C(c2ccccc2)=C(c2ccccc2)S/C1=C\C=C1/SC(=S)N(C)C1=O`, with 3.35 µM. With `CN(C)CCCNc1cc(C(C)(C)C)nc2c(-c3ccc(Cl)cc3)cnn12`, the EC50 is > 30 µM (inactive). Take `CC(=O)Nc1cccc2c1C(=O)N(c1cccc(C)c1)C2=O`: the EC50 is > 30 µM (inactive).

As for `O=C(c1cc(COc2c(F)cccc2F)on1)N1C[C@H]2CC[C@H]1C2`, the EC50 is > 30 µM (inactive).

Turning to `CCC(/C=C1\Sc2ccc(OC)cc2N1CCO)=C\c1sc2ccc(OC)cc2[n+]1CCO`, the EC50 is 0.51 µM. On the same count and under the same terms, then `CC[n+]1c(/C=C/C=C/N(C(C)=O)c2ccccc2)sc2ccccc21`, with > 30 µM (inactive); and `O=C(CCCC(=O)N(CC(=O)NC1CCCC1)C1CCCC1)Nc1ccccn1`, with > 30 µM (inactive). On the same count and under the same terms, the result for `CCN(CC)CCOC(=O)c1ccc(N/C=C(/C#N)c2nc(-c3ccc(OC)c(OC)c3)cs2)cc1` reads > 30 µM (inactive); that for `CCc1ccc(-c2nn(-c3ccccc3)cc2CSC(=N)N)cc1`, 5.27 µM. Take `CN(C)CCCN(C(=O)c1ccc2c(c1)CCCC2)c1nc2ccc(Cl)cc2s1`: the EC50 was > 30 µM (inactive). Take `C#CCOCCOCCOCCNc1nc(N2CCN(C(=O)[C@H](Cc3ccc(O)cc3)n3cc([C@@H](N)C(C)CC)nn3)CC2)nc(N2CCN(C(=O)[C@H](Cc3cc4ccccc4[nH]3)n3cc([C@@H](N)Cc4ccc(O)cc4)nn3)CC2)n1` (some centres undefined): the EC50 is > 30 µM (inactive). Consider `CCn1cc(C(=O)O)c(=O)c2cc(F)c(N3CCN(C(=S)NC(=O)c4ccc(Br)cc4)CC3)cc21`, for which the EC50 was > 30 µM (inactive). Regarding `COc1ccc(-c2cc(C#N)nc(N3CCNCC3)n2)cc1`, the EC50 was > 30 µM (inactive). As for `CCCCCCCCCCOC(=O)Cn1c(COc2cccc(C)c2)[n+](C)c2ccccc21`, the EC50 was > 30 µM (inactive). For the compound `CCOC(=O)N1CCN(c2c(N3CCN(c4ccccc4F)CC3)c(=O)c2=O)CC1`, the EC50 was > 30 µM (inactive). `Cc1cc(N=Nc2ccc(C)c(N=Nc3cc(C)c(N)cc3N)c2)c(N)cc1N`: the EC50 was > 30 µM (inactive). As to `COc1ccc(C2NCCc3c2[nH]c2ccccc32)cc1CN1CCc2cc(OC)c(OC)cc2C1C` (centres undefined), the EC50 was 13.2 µM.

`CN1CCN(CC(=O)N2CCn3c4c(c5cc(C6CCCCC6)ccc53)CCCC42)CC1` (centres undefined): the EC50 was > 30 µM (inactive). In the case of `Nc1ccc(N)c(C(=O)O)c1`, the EC50 is > 30 µM (inactive).

The same experiment, now with this note: Bead-based multiplex flow cytometry, measured here: Ki for PB1 binding.
For `CN(c1ccccc1)c1ccc(/C=c2\s/c(=C(/C#N)C(=O)C(C)(C)C)n(Cc3ccco3)c2=O)cc1`, the Ki came to 0.16 µM. Compound `CCN1C(c2ccccc2)=C(c2ccccc2)S/C1=C/C=C1\SC(=S)N(C)C1=O` had a Ki of 3.16 µM.

Consider `CCN1C(c2ccccc2)=C(c2ccccc2)S/C1=C\C=C1/SC(=S)N(C)C1=O`, for which the inhibitory constant (Ki) turned out to be 3.28 µM. On to `CCC(/C=C1\Sc2ccc(OC)cc2N1CCO)=C\c1sc2ccc(OC)cc2[n+]1CCO`, for which the Ki is 0.5 µM.
